Assays:
Experiment in all cases: relative viability (nuclei count vs DMSO), 5 days (fraction); higher = more cells survive
VE-821 + OSI-027 = compound: CS(=O)(=O)c1ccc(-c2cnc(N)c(C(=O)Nc3ccccc3)n2)cc1 [VE-821] + COc1cccc2cc(-c3nc([C@H]4CC[C@H](C(=O)O)CC4)n4ncnc(N)c34)[nH]c12 [OSI-027] (partner 0.5 µM)
How it was run: (§1)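 Lung cancer cell lines in 1536-well plates were dosed by pin tool the day after seeding, either with one drug alone or with a fixed anchor-drug dose plus five library-drug doses (not always all listed) in √10 steps. After 5 days, cells were fixed and their nuclei stained in one step (final 0.05% Triton X-100, 1% formaldehyde, 1 ug/ml Hoechst), then counted on 4× images. Relative viability is the nuclei count in treated wells divided by that in vehicle wells. Values are medians of duplicate plates.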

Vismodegib + Decitabine = compound: CS(=O)(=O)c1ccc(C(=O)Nc2ccc(Cl)c(-c3ccccn3)c2)c(Cl)c1 [Vismodegib] + Nc1ncn([C@H]2C[C@H](O)[C@@H](CO)O2)c(=O)n1 [Decitabine] (partner 2 µM)
How it was run: as §1

Ruxolitinib + Foretinib = compound: N#CC[C@H](C1CCCC1)n1cc(-c2ncnc3[nH]ccc23)cn1 [Ruxolitinib] + COc1cc2c(Oc3ccc(NC(=O)C4(C(=O)Nc5ccc(F)cc5)CC4)cc3F)ccnc2cc1OCCCN1CCOCC1 [Foretinib] (partner 0.25 µM)
How it was run: as §1

VE-821 + Decitabine = compound: CS(=O)(=O)c1ccc(-c2cnc(N)c(C(=O)Nc3ccccc3)n2)cc1 [VE-821] + Nc1ncn([C@H]2C[C@H](O)[C@@H](CO)O2)c(=O)n1 [Decitabine] (partner 2 µM)
How it was run: as §1

Cell Line | relative viability (VE-821 + OSI-027; first compound 0.08 µM) | relative viability (VE-821 + OSI-027; first compound 0.253 µM) | relative viability (VE-821 + OSI-027; first compound 0.8 µM) | relative viability (VE-821 + OSI-027; first compound 2.53 µM) | relative viability (VE-821 + OSI-027; first compound 8 µM) | relative viability (Vismodegib + Decitabine; first compound 0.08 µM) | relative viability (Vismodegib + Decitabine; first compound 0.253 µM) | relative viability (Vismodegib + Decitabine; first compound 0.8 µM) | relative viability (Vismodegib + Decitabine; first compound 2.53 µM) | relative viability (Vismodegib + Decitabine; first compound 8 µM) | relative viability (Ruxolitinib + Foretinib; first compound 0.08 µM) | relative viability (Ruxolitinib + Foretinib; first compound 0.253 µM) | relative viability (Ruxolitinib + Foretinib; first compound 0.8 µM) | relative viability (Ruxolitinib + Foretinib; first compound 2.53 µM) | relative viability (Ruxolitinib + Foretinib; first compound 8 µM) | relative viability (VE-821 + Decitabine; first compound 0.08 µM) | relative viability (VE-821 + Decitabine; first compound 0.253 µM) | relative viability (VE-821 + Decitabine; first compound 0.8 µM) | relative viability (VE-821 + Decitabine; first compound 2.53 µM) | relative viability (VE-821 + Decitabine; first compound 8 µM)
NCI-H1734 | 0.701 | 0.529 | 0.599 | 0.529 | 0.331 | 0.466 | 0.437 | 0.47 | 0.505 | 0.499 | 0.862 | 0.713 | 0.894 | 0.759 | 0.815 | 0.585 | 0.473 | 0.515 | 0.522 | 0.448
NCI-H1755 | 0.795 | 0.709 | 0.636 | 0.755 | 0.632 | 0.686 | 0.727 | 0.693 | 0.677 | 0.723 | 0.946 | 0.892 | 0.91 | 0.852 | 0.755 | 0.734 | 0.754 | 0.866 | 0.867 | 0.831
NCI-H1793 | 0.247 | 0.305 | 0.232 | 0.272 | 0.242 | – | 0.475 | 0.58 | 0.476 | 0.579 | 0.604 | 0.668 | 0.959 | 0.761 | 0.54 | 0.55 | 0.468 | – | 0.637 | 0.461
NCI-H1915 | 0.701 | 0.593 | 0.618 | 0.684 | 0.534 | 0.265 | 0.264 | 0.236 | 0.245 | 0.258 | 1.1 | 1.11 | 1.17 | 0.947 | 0.982 | 0.284 | 0.262 | 0.312 | 0.266 | 0.318
NCI-H1944 | 0.441 | 0.354 | 0.383 | 0.463 | 0.328 | 0.428 | 0.413 | 0.456 | – | 0.405 | 0.839 | 0.886 | 0.876 | 0.873 | 0.877 | 0.418 | 0.408 | 0.418 | 0.438 | 0.343
NCI-H1975 | 0.901 | 0.589 | – | 0.471 | 0.439 | 0.386 | 0.444 | 0.396 | 0.414 | 0.404 | 1.04 | 0.933 | 0.995 | 0.956 | 0.603 | 0.4 | 0.38 | 0.358 | 0.381 | 0.324
NCI-H1993 | 0.532 | 0.553 | 0.506 | 0.468 | 0.495 | 0.524 | 0.68 | 0.588 | 0.587 | 0.543 | 0.752 | 0.698 | 0.821 | 0.857 | 0.817 | 0.607 | 0.557 | 0.596 | 0.568 | 0.486
NCI-H2009 | 0.693 | 0.557 | 0.598 | 0.618 | 0.318 | 0.363 | 0.377 | 0.366 | 0.416 | 0.344 | 1.21 | 1.27 | 1.23 | 1.15 | 0.876 | 0.381 | 0.413 | 0.425 | 0.413 | 0.398
NCI-H2023 | 0.392 | 0.311 | 0.274 | 0.274 | 0.11 | 0.224 | 0.197 | 0.285 | 0.246 | 0.236 | 0.682 | 0.897 | 0.947 | 0.978 | 1.32 | 0.249 | 0.259 | 0.205 | 0.194 | 0.13
NCI-H2085 | 0.788 | 0.736 | 0.489 | 0.747 | 0.334 | 0.548 | 0.461 | 0.544 | 0.56 | 0.561 | 1.03 | 0.984 | 1.13 | 0.797 | 0.732 | 0.539 | 0.528 | 0.778 | – | 0.538
NCI-H2087 | 0.537 | 0.576 | 0.515 | 0.683 | 0.495 | 0.267 | 0.25 | 0.266 | 0.296 | 0.233 | 1.03 | 0.983 | 1.28 | 0.975 | 0.772 | 0.381 | 0.286 | 0.309 | 0.363 | 0.275
NCI-H2126 | 0.757 | 0.651 | 0.645 | 0.59 | 0.49 | 0.598 | 0.544 | 0.592 | 0.549 | 0.611 | 1.09 | 1.27 | 1.2 | 1.12 | 1.16 | 0.523 | 0.576 | 0.577 | 0.588 | 0.528
NCI-H2170 | 0.638 | 0.757 | 0.732 | 0.648 | 0.636 | 0.489 | 0.477 | 0.455 | 0.463 | 0.467 | 0.992 | 0.609 | 0.602 | 0.951 | 0.943 | 0.515 | 0.469 | 0.487 | 0.434 | 0.295
NCI-H2342 | 0.648 | 0.54 | 0.639 | 0.584 | 0.527 | 0.752 | 0.637 | 0.709 | 0.804 | 0.89 | 1.07 | 0.936 | 1.17 | 1.07 | 1.11 | 0.773 | 0.754 | 0.704 | 0.75 | 0.682
NCI-H2347 | 0.361 | 0.399 | 0.404 | 0.446 | 0.376 | 0.645 | 0.603 | 0.593 | 0.646 | 0.612 | – | 0.84 | 0.856 | 0.769 | 1.06 | 0.624 | 0.595 | 0.678 | 0.693 | 0.723
NCI-H2405 | 0.634 | 0.632 | 0.628 | 0.751 | 0.686 | 0.739 | 0.801 | 0.693 | 0.712 | 0.741 | – | 1.06 | 1.17 | 1.08 | 0.875 | 0.805 | 0.698 | 0.775 | 0.814 | 0.761
NCI-H3122 | 1.01 | 0.958 | 1 | 1.08 | 0.758 | 0.469 | 0.499 | 0.512 | 0.423 | 0.323 | 0.942 | 0.873 | 1.01 | 0.881 | 0.948 | 0.474 | 0.482 | 0.485 | 0.46 | 0.428
